Measurements taken from patent publication US7897815B2, “Hexafluoroisopropanol derivatives” (Hoffmann-La Roche Inc., priority 2004, dated 2011).

Assays:
[1] = biological target: T1, human LXR alpha (GST-LXRα-LBD) (Homo sapiens, UniProt Q13133); test: Radioligand binding assay (SPA), LXR alpha; conditions: GST-LXRα-LBD on SPA beads, read-out: LXRalpha Binding IC50
T1 construct: human LXR alpha (aa 164 to 447); made in house; host or cells: E. coli BL21 (pLysS)
T1 sequence (Q13133 164-447): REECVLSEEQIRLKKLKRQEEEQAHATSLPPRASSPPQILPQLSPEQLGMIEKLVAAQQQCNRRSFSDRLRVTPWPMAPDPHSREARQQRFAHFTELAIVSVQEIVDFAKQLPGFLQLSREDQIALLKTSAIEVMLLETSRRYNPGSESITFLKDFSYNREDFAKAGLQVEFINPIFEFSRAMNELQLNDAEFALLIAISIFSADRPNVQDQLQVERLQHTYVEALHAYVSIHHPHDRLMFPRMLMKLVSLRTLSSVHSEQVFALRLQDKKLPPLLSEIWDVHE
Procedure: The following tests were carried out in order to determine the activity of the compounds of the present invention. Background information on the performed assays can be found in: Nichols J S et al. “Development of a scintillation proximity assay for peroxisome proliferator-activated receptor gamma ligand binding domain”, Anal Biochem. 1998, 257: 112-119.
Mammalian expression vectors were constructed to express full-length human LXR alpha and LXR beta. Bacterial expression vectors were constructed to produce glutathione-s-transferase (GST) fused to the ligand binding domains (LBD) of human LXR alpha (aa 164 to 447) and human LXR beta (aa 155 to 460). To accomplish this, the portions of the sequences encoding the LBDs were amplified from full-length clones by PCR and then subcloned into the plasmid vectors. Final clones were verified by DNA sequence analysis (Willy et al., Genes Dev. 1995, 9:1033-45; Song et al., Proc Natl Acad Sci USA. 1994, 91:10809-13).
Induction, expression, and purification of GST-LBD fusion proteins were performed in E. coli strain BL21 (pLysS) cells by standard methods (Ref: Current Protocols in Molecular Biology, Wiley Press, edited by Ausubel et al).
LXR alpha and LXR beta receptor binding were assayed in buffer consisting of 50 mM HEPES, pH 7.4, 10 mM NaCl, 5 mM MgCl2. For each 96-well reaction, 500 ng of GST-LXRα-LBD or 700 ng of GST-LXR beta-LBD fusion proteins were bound to 80 μg or 40 μg SPA beads (Pharmacia Amersham) respectively, in a final volume of 50 μl by shaking. The resulting slurry was incubated for 1 h at RT and centrifuged for 2 min at 1300×g. The supernatant containing unbound protein was removed, and the semi-dry pellet containing the receptor-coated beads was re-suspended in 50 μl of buffer. […] All binding assays were performed in 96-well plates and the amount of bound ligand was measured on a Packard TopCount using OptiPlates (Packard). Dose response curves were measured within a range of concentration from 10^−10 M to 10^−4 M.

[2] = biological target: T2, human LXR beta (GST-LXR beta-LBD) (Homo sapiens, UniProt P55055); test: Radioligand binding assay (SPA), LXR beta; conditions: GST-LXR beta-LBD on SPA beads, read-out: LXRbeta Binding IC50
T2 construct: human LXR beta (aa 155 to 460); made in house; host or cells: E. coli BL21 (pLysS)
T2 sequence (P55055 155-460): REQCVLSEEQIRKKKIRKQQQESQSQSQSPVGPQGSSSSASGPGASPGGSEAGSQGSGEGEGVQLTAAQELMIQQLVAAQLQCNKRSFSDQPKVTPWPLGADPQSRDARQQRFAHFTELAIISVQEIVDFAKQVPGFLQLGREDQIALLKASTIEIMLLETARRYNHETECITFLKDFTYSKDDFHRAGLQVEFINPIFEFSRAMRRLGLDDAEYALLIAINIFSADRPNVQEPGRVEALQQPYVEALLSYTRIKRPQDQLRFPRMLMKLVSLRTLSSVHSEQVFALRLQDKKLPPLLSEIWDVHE
Procedure: The following tests were carried out in order to determine the activity of the compounds of the present invention.
Mammalian expression vectors were constructed to express full-length human LXR alpha and LXR beta. […] To accomplish this, the portions of the sequences encoding the LBDs were amplified from full-length clones by PCR and then subcloned into the plasmid vectors.
LXR alpha and LXR beta receptor binding were assayed in buffer consisting of 50 mM HEPES, pH 7.4, 10 mM NaCl, 5 mM MgCl2. […] The resulting slurry was incubated for 1 h at RT and centrifuged for 2 min at 1300×g. The supernatant containing unbound protein was removed, and the semi-dry pellet containing the receptor-coated beads was re-suspended in 50 μl of buffer. Radioligand (eg. 100,000 dpm of (N-(2,2,2-trifluoroethyl)-N-[4-(2,2,2-trifluoro-1-hydroxy-1-trifluoromethylethyl)-phenyl]-benzenesulfonamide)) was added, and the reaction incubated at RT for 1 h in the presence of test compounds, and then scintillation proximity counting was performed. All binding assays were performed in 96-well plates and the amount of bound ligand was measured on a Packard TopCount using OptiPlates (Packard). Dose response curves were measured within a range of concentration from 10^−10 M to 10^−4 M.

IC50 [1]	IC50 [2]	SMILES
46 nM	–	CCN(Cc1ccccc1)c1ccc(C(O)(C(F)(F)F)C(F)(F)F)cc1 [Example 1, 2-[4-(benzyl-ethyl-amino)-phenyl]-1,1,1,3,3,3-hexafluoro-propan-2-ol]
17 nM	–	CCN(Cc1cscn1)c1ccc(C(O)(C(F)(F)F)C(F)(F)F)cc1Cl [Example 18, 2-{3-chloro-4-[ethyl-(thiazol-4-ylmethyl)-amino]-phenyl}-1,1,1,3,3,3-hexafluoro-propan-2-ol]
2.7 nM	5.7 nM	CCN(Cc1nc(-c2cccc(C(=O)OC)c2)oc1C)c1ccc(C(O)(C(F)(F)F)C(F)(F)F)cc1 [Example 30, 3-[4-({ethyl-[4-(2,2,2-trifluoro-1-hydroxy-1-trifluoromethyl-ethyl)-phenyl]-amino}-methyl)-5-methyl-oxazol-2-yl]-benzoic acid methyl ester]
